“Also recorded” adds a separate entry of the source. Read-outs that look alike come from different tables or passages of the source.
Tests used:
JNK2 = JNK2 degradation, western blot in MDA-MB-231 cells; format: cell-based, human; details: 0.025-2.5 µM
Protocol: […] once with ice-cold PBS (1 × ), followed by lysis in buffer containing 25 mM Tris [pH 7.5], 0.25% sodium deoxycholate, 1% Triton X-100, supplemented with 1X protease inhibitor cocktail (Roche), and phosphatase inhibitors (10 mM NaF, 1 mM Na3VO4, and 20 mM β-glycerophosphate), unless otherwise noted. Lysates were spun at 14,000 × g for 10 min at 4 °C and supernatant was evaluated for protein content using a Pierce BCA Protein Assay (ThermoFisher Scientific). In all experiments, 25–50 μg of protein was loaded onto 10% SDS-PAGE gels or 4–20% Criterion TGX precast gradient gels (Bio-Rad), transferred to nitrocellulose membranes, and probed with the specified antibodies overnight at 4 °C in 1X TBS-Tween (Tris-buffered saline plus 0.02% Tween 20) containing 5% non-fat milk. Immunoblots were visualized using a Bio-Rad ChemiDoc imaging instrument and subsequently processed and quantified using the accompanying Bio-Rad ImageLab software. See Supplementary Figure 8 for uncropped scans of western blots shown in the main text figures.
Supplementary Figure 4 cont.
Supplementary Figure 4. Characterization of M APK fam ily degradation selectivity (related to Figures 1-2). (a) p38 M APK fam ily m em bers (α, β, δ, γ) were aligned using the T-Coffee multiple sequence alignm ent server. […] Note: JNK1 and JNK2 are expressed as two alternatively-spliced form s. […]

p38δ:PROTAC:VHL = target: T1, p38δ:PROTAC:VHL (Homo sapiens, UniProt O15264+P40337); assay: SPR ternary binding, equimolar p38δ:PROTAC injected onto immobilized VHL; details: for p38δ:PROTAC:VHL t1/2: ternary complex half-life
T1 construct: encoding a region spanning amino acids 1–365; His6 (N); made in house; host or cells: E. coli BL21-CodonPlus(DE3)-RIPL (p38δ); E. coli BL21(DE3) (GST-VBC)
Protocol: SPR experiments were conducted on a Biacore 3000 instrument (GE Healthcare) at room temperature. GST antibody was immobilized through direct amination onto a carboxymethylated dextran surface (CM5) and GST-VBC was captured on the CM5 surface. This prepared surface was equilibrated over 3 h in running buffer (10 mM HEPES buffer pH 7.4, 150 mM NaCl, 0.4 mg mL^−1 BSA, 0.005% P20, 2% DMSO). All compounds were prepared in 100% DMSO stock plates with a top concentration of 500 µM in a 3× serial dilution. Compounds were transferred from the stock plate to the assay plate and diluted into running buffer without DMSO. Equimolar concentration of target protein was added to corresponding compound wells. All compounds were run as a 12-point concentration series with a final assay top concentration of 50 µM to measure p38δ:PROTAC and VHL:PROTAC binding and top concentration of 5 µM to measure p38δ:PROTAC:VHL binding. All compounds were injected for 60 s and allowed to dissociate for 300 s. Data analysis was performed in Scrubber 2 (BioLogic Software). Blanks from reference flow cell containing immobilized GST-VBC were subtracted to correct for noise and data were solvent-corrected against a standard DMSO curve. All reported Kd values represent an average of at least two replicates and were obtained by fitting to a minimum of five concentrations using a 1:1 fitting algorithm.

[1] = target: T2, mutant (K220E/T221E) p38δ (Homo sapiens, UniProt O15264, K220E/T221E); assay: Degradation of transfected mutant p38δ in HeLa cells; format: cell-based; details: 24 h
T2 construct: expressed in transfected cells; host or cells: HeLa cells, Lipofectamine 2000, pcDNA5-p38delta-K220ET221E
T2 sequence (O15264 1-365 K220E/T221E): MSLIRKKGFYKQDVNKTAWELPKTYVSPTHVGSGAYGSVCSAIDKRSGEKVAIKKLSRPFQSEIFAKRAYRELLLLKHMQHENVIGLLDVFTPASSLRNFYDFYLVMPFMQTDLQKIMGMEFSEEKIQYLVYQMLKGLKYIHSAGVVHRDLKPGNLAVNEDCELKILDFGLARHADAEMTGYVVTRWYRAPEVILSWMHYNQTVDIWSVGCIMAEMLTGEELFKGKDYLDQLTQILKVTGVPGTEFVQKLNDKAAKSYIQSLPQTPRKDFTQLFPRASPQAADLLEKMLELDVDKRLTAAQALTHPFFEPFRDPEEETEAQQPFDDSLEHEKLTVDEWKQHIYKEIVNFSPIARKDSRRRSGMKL
Protocol: Mutant p38δ was generated by QuikChange Lightning site-directed mutagenesis kit (Agilent). Transfections were carried out using Lipofectamine 2000 reagent (Invitrogen) in HeLa cells seeded at 3 × 10^5 cells per six well. One microgram of FLAG-containing pcDNA5-p38delta-WT or pcDNA5-p38delta-K220ET221E was used per transfection. Opti-MEM media were changed after 6 h to DMEM (1 × ), at which point the indicated compounds were added for 24 h before harvesting.

[2] = SPR ternary, Replicate 2, read-out: koff
[3] = SPR, ternary, VHL immobilized, read-out: p38δ:PROTAC:VHL koff

T1 sequence (O15264 whole entry, the tested form may be a part): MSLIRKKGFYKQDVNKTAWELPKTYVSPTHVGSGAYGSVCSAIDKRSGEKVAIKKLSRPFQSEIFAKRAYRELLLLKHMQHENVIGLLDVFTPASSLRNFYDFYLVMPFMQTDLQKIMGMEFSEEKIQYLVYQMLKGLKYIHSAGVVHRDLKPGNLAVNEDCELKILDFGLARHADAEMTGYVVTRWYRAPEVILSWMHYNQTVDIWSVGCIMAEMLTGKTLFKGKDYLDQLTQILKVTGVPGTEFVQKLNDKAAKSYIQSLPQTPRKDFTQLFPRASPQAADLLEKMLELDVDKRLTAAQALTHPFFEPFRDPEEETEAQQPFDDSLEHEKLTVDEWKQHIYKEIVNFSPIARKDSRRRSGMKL
T1 sequence (P40337 whole entry, the tested form may be a part): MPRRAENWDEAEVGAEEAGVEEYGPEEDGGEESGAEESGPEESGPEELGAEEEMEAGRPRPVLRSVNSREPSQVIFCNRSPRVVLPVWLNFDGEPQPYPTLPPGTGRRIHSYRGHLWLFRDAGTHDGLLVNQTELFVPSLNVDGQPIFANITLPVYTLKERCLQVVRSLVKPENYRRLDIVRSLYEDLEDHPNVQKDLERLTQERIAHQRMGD
T1 sequence (Q15370 whole entry partner, the tested form may be a part): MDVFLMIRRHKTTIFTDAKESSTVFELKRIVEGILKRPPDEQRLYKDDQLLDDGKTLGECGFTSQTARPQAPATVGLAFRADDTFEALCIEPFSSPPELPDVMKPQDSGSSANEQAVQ
T1 sequence (Q15369 whole entry partner, the tested form may be a part): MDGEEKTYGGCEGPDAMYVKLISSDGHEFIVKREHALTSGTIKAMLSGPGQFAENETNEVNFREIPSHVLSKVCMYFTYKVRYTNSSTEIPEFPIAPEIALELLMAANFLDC

Structure (SMILES)	JNK2 degradation (JNK2)	leftward shift of ternary affinity from the VHL:PROTAC binary affinity (p38δ:PROTAC:VHL; SPR)	koff (p38δ:PROTAC:VHL; [2]) [s⁻¹]	Kd (p38δ:PROTAC:VHL; SPR, Replicate 1) [nM]	Kd (p38δ:PROTAC:VHL; SPR, Replicate 2) [nM]	p38δ:PROTAC:VHL t1/2 (p38δ:PROTAC:VHL; SPR) [s]	kon (p38δ:PROTAC:VHL; SPR, ternary, VHL immobilized) [M⁻¹ s⁻¹]	koff (p38δ:PROTAC:VHL; [3]) [s⁻¹]	degradation of double-mutant (K220E/T221E) p38δ [1]	ternary affinity weaker than the SJFδ-induced complex (p38δ:PROTAC:VHL; SPR)	koff (p38δ:PROTAC:VHL; SPR ternary, Replicate 1, read-out: koff) [s⁻¹]
COc1cc2c(Oc3ccc(NC(=O)C4(C(=O)Nc5ccc(F)cc5)CC4)cc3F)ccnc2cc1OCCOCCOCCOc1cc(-c2scnc2C)ccc1CNC(=O)[C@@H]1C[C@@H](O)CN1C(=O)[C@H](C(C)C)N1Cc2ccccc2C1=O [SJFδ]	neither PROTAC degrades	~ 8 fold	0.017	358	514	38	39600	0.018	able to degrade		
COc1cc2c(Oc3ccc(NC(=O)C4(C(=O)Nc5ccc(F)cc5)CC4)cc3F)ccnc2cc1OCCCCOCCCCOCC(=O)N[C@H](C(=O)N1C[C@H](O)C[C@H]1C(=O)NCc1ccc(-c2scnc2C)cc1)C(C)(C)C [SJFα]	neither PROTAC degrades		0.082			8	70100	0.072	able to degrade; also recorded: potently degrades	~ 3 fold	0.083

Reference: article PMC6328587 (Nature Communications, 2019)
